Test results: patent US20130065820A1, “SYNTHETIC MYOSTATIN PEPTIDE ANTAGONISTS” (COVITA LIMITED, priority 2009, published 2013)
Values joined by “and” are separate entries in the source; they are usually repeats but may differ in a detail not shown here. Equal values may be shown once. Bridge positions count the residues as written; N and C are the ends. Ends that are not written are not given here.

Key:
myoblasts = assay: Myoblast proliferation / biological activity of synthetic peptides with other cysteine connectivities (results not shown); format: cell-based; conditions: synthetic peptides of stated connectivity or truncation
Experimental: (§1) Bovine C2C12 myoblasts were grown in Dulbecco's modified eagle medium according to the standard techniques (Thomas et al, 2000). The myoblast proliferation assay was carried out in uncoated 96-well microtitre plates. C2C12 cultures were seeded at 1000 cells/well. Following a 16-hour attachment period, test media containing varying concentrations of either the synthetic 310 peptide in the 2-3 conformation, the synthetic 310 peptide in the 1-4/2-3 conformation or the positive control (recombinant 310 peptide) were added and cells were incubated for a further 48 or 72 hour period. After the incubation period, proliferation was assessed using methylene blue photometric endpoint assay as previously described (Thomas et al, 2000).
A number of synthetic peptides were prepared having an amino acid sequence corresponding to amino acids at positions 267-310 and 282-310 of SEQ ID NO:1. Of the 267-310 peptides a number of different connectivities were prepared as follows: • 1. 1-3/2-4 • 2. 1-2/3-4 • 3. 1-2 • 4. 1-3 • 5. 1-4 • 6. 1-2, 3-4/1-3, 2-4 • 7. 2-4 • 8. 3-4 • 9. 1-4/2-3 • 10. Linear (no forced connectivity)
The peptides were synthesized as described above in example 1. Different cysteine residues were protected and deprotected to produce the specified connectivities and would be understood by a skilled worker.

C2C12 myoblasts [1] = assay: Nuclei count per well by DAPI staining of the myoblast proliferation plates; format: cell-based, Bovine
Experimental: as §1
To confirm that the increased proliferation observed in example 1 was not simply false positive results, the plates were used to count nuclei.
Cells in the wells of interest were stained with DAPI (4′-6-diamidino-2-phenylindole) which is a fluorescent dye that stains nuclei blue. DAPI was used at a concentration of […] in PBS and cells stained for 5 mins at room temperature, then washed once with PBS buffer. Images of each well were then captured via a Leica DMI 6000 microscope and an image analysis program (Image-Pro plus) utilised to count the nuclei. For each treatment (recombinant 310 positive control, and synthetic peptides (2-3) and (1-4/2-3) at 10 and 20 µg/ml), 3-6 wells per treatment were analysed.

C2C12 myoblasts [2] = assay: Myoblast proliferation assay (methylene blue photometric endpoint); format: cell-based, Mouse; conditions: for % proliferation above control: control (media + buffer) = 100%; for myoblast proliferation / biological activity (in words): 48 or 72 hours, compared to control (media and buffer only)
Excerpt: A synthetic peptide of the invention, or a functional variant or fragment thereof has the biological function of antagonising myostatin activity. To determine whether a synthetic peptide of the invention, or functional variant or fragment thereof, is able to antagonise myostatin activity, such activity can be tested by growing myoblasts in the presence or absence (control) of a candidate synthetic peptide of the invention. […] A suitable cell line could be murine C2Cl2 myoblasts (ATCC NO: CRL-1772), however, it will be appreciated that any suitable myoblast cell line could be used, such as primary ovine, bovine, porcine or human myoblasts.
as §1, with “The” for “Bovine C2C12 myoblasts were grown in Dulbecco's modified eagle medium according to the standard techniques (Thomas et al, 2000). The”

myostatin = conditions: recombinant peptide, WO 2008/016314; cited from earlier work

1-2: Synthetic 267-310 myostatin peptide with 1-2 cysteine connectivity (DFGLDCDEHSTESRCCRYPLTVDFEAFGWDWIIAPKRYKANYCS; disulfide 6-15; not fully specified (bridges); cysteine pairing not given here; UniProt O18836 267-310, looked up, fragment)
biological activity / enhanced myoblast proliferation (in words) (myoblasts): not biologically active

3-4: Synthetic 267-310 myostatin peptide with 3-4 cysteine connectivity (DFGLDCDEHSTESRCCRYPLTVDFEAFGWDWIIAPKRYKANYCS; disulfide 16-43; not fully specified (bridges); cysteine pairing not given here; UniProt O18836 267-310, looked up, fragment)
biological activity / enhanced myoblast proliferation (in words) (myoblasts): not biologically active

Synthetic 310 (2-3 connectivity): Synthetic peptide of amino acids 267-310 of bovine myostatin with forced disulfide between cysteines 2 and 3 (281, 282) (DFGLDCDEHSTESRCCRYPLTVDFEAFGWDWIIAPKRYKANYCS; disulfide 15-16; not fully specified (bridges); cysteine pairing not given here; UniProt O18836 267-310, looked up, fragment)
Number of nuclei per well (C2C12 myoblasts [1]; 10 μg, 48 h): 810.5
Number of nuclei per well (C2C12 myoblasts [1]; 10 μg, 72 h): 1906.1
Number of nuclei per well (C2C12 myoblasts [1]; 20.0 μg, 48 h): 808.9
Number of nuclei per well (C2C12 myoblasts [1]; 20.0 μg, 72 h): 1903.6
increase in cell numbers (in words) (C2C12 myoblasts [1]; 48 h): significant increases in cell numbers
increase in cell numbers (in words) (C2C12 myoblasts [1]; 72 h): significant increases in cell numbers
% proliferation above control (C2C12 myoblasts [2]; 0.1 μg, 48 h): 101.66%
% proliferation above control (C2C12 myoblasts [2]; 0.1 μg, 72 h): 101.06%
% proliferation above control (C2C12 myoblasts [2]; 1.0 μg, 48 h): 97.70%
% proliferation above control (C2C12 myoblasts [2]; 1.0 μg, 72 h): 102.00%
% proliferation above control (C2C12 myoblasts [2]; 10 μg, 48 h): 104.18%
% proliferation above control (C2C12 myoblasts [2]; 10 μg, 72 h): 103.83%
% proliferation above control (C2C12 myoblasts [2]; 20.0 μg, 48 h): 105.00%
% proliferation above control (C2C12 myoblasts [2]; 20.0 μg, 72 h): 105.07%
myoblast proliferation / biological activity (in words) (C2C12 myoblasts [2]): biologically active

310 synthetic peptide that was N-terminally truncated at amino acid position 282: Synthetic peptide of amino acids 282-310 of SEQ ID NO:1, only cysteines 3 and 4 (CRYPLTVDFEAFGWDWIIAPKRYKANYCS; only cysteines 3 and 4; listed as Homo sapiens)
biological activity / enhanced myoblast proliferation (in words) (myoblasts): not active

linear 310 synthetic peptide: Synthetic 267-310 myostatin peptide, linear, no forced connectivity (DFGLDCDEHSTESRCCRYPLTVDFEAFGWDWIIAPKRYKANYCS; Growth/differentiation factor 8 linear; UniProt O18836 267-310, looked up, fragment)
biological activity / enhanced myoblast proliferation (in words) (myoblasts): showed enhanced myoblast proliferation

synthetic peptide having a truncation position at 281: Synthetic mature myostatin peptide C-terminally truncated at position 281 (DFGLDCDEHSTESRC; Growth/differentiation factor 8; UniProt O18836 267-281, looked up, fragment)
biological activity / enhanced myoblast proliferation (in words) (myoblasts): not biologically active

2-4: Synthetic 267-310 myostatin peptide with 2-4 cysteine connectivity (DFGLDCDEHSTESRCCRYPLTVDFEAFGWDWIIAPKRYKANYCS; disulfide 15-43; not fully specified (bridges); cysteine pairing not given here; UniProt O18836 267-310, looked up, fragment)
biological activity / enhanced myoblast proliferation (in words) (myoblasts): not biologically active

1-4: Synthetic 267-310 myostatin peptide with 1-4 cysteine connectivity (DFGLDCDEHSTESRCCRYPLTVDFEAFGWDWIIAPKRYKANYCS; disulfide 6-43; not fully specified (bridges); cysteine pairing not given here; UniProt O18836 267-310, looked up, fragment)
biological activity / enhanced myoblast proliferation (in words) (myoblasts): not biologically active

310 positive control: Recombinant peptide of amino acids 267-310 of bovine myostatin with N terminal and C terminal tags, positive control (DFGLDCDEHSTESRCCRYPLTVDFEAFGWDWIIAPKRYKANYCS; cysteine pairing not given here; also: N- and C-terminal tags; UniProt O18836 267-310, looked up, fragment) [reference compound]
Number of nuclei per well (C2C12 myoblasts [1]; 10 μg, 48 h): 847.1 and 816.7
Number of nuclei per well (C2C12 myoblasts [1]; 10 μg, 72 h): 2429.3 and 2229.2
% proliferation above control (C2C12 myoblasts [2]; 10 μg, 48 h): 113.58% and 111.76%
% proliferation above control (C2C12 myoblasts [2]; 10 μg, 72 h): 122.97% and 119.64%
myoblast proliferation / biological activity (in words) (C2C12 myoblasts [2]): significantly enhanced myoblast proliferation

Synthetic 310 (2-3/1-4 connectivity): Synthetic peptide of amino acids 267-310 of bovine myostatin (SEQ ID NO:4) with forced 2-3/1-4 disulfide connectivity (DFGLDCDEHSTESRCCRYPLTVDFEAFGWDWIIAPKRYKANYCS; disulfide 15-16, 6-43)
Number of nuclei per well (C2C12 myoblasts [1]; 10 μg, 48 h): 810.2
Number of nuclei per well (C2C12 myoblasts [1]; 10 μg, 72 h): 2328.2
Number of nuclei per well (C2C12 myoblasts [1]; 20.0 μg, 48 h): 739.3
Number of nuclei per well (C2C12 myoblasts [1]; 20.0 μg, 72 h): 2172.0
increase in cell numbers (in words) (C2C12 myoblasts [1]; 72 h): significant increases in cell numbers
biological activity / enhanced myoblast proliferation (in words) (myoblasts): biologically active
% proliferation above control (C2C12 myoblasts [2]; 0.1 μg, 48 h): 100.17%
% proliferation above control (C2C12 myoblasts [2]; 0.1 μg, 72 h): 100.54%
% proliferation above control (C2C12 myoblasts [2]; 1.0 μg, 48 h): 100.07%
% proliferation above control (C2C12 myoblasts [2]; 1.0 μg, 72 h): 102.60%
% proliferation above control (C2C12 myoblasts [2]; 10 μg, 48 h): 108.58%
% proliferation above control (C2C12 myoblasts [2]; 10 μg, 72 h): 107.51%
% proliferation above control (C2C12 myoblasts [2]; 20.0 μg, 48 h): 106.87%
% proliferation above control (C2C12 myoblasts [2]; 20.0 μg, 72 h): 110.47%
myoblast proliferation / biological activity (in words) (C2C12 myoblasts [2]): slightly more biological activity

1-3: Synthetic 267-310 myostatin peptide with 1-3 cysteine connectivity (DFGLDCDEHSTESRCCRYPLTVDFEAFGWDWIIAPKRYKANYCS; disulfide 6-16; not fully specified (bridges); cysteine pairing not given here; UniProt O18836 267-310, looked up, fragment)
biological activity / enhanced myoblast proliferation (in words) (myoblasts): not biologically active

mature recombinant myostatin peptide C-terminally truncated at position 281: Recombinant mature myostatin peptide truncated at 281, two cysteines (1-2 connectivity), from WO 2008/016314 (DFGLDCDEHSTESRC; disulfide 6-15; UniProt O18836 267-281, looked up, fragment)
biological activity (in words) (myostatin): biologically active
